This experiment addresses Beta-lactamase (Escherichia coli (strain K12), UniProt P00811). Description: Beta-lactamase AmpC Inhibition Assay. The conditions noted are these: pH 7. The source says:
Class C Beta-lactamase AmpC inhibition assay

Sequence of Beta-lactamase (P00811 whole entry): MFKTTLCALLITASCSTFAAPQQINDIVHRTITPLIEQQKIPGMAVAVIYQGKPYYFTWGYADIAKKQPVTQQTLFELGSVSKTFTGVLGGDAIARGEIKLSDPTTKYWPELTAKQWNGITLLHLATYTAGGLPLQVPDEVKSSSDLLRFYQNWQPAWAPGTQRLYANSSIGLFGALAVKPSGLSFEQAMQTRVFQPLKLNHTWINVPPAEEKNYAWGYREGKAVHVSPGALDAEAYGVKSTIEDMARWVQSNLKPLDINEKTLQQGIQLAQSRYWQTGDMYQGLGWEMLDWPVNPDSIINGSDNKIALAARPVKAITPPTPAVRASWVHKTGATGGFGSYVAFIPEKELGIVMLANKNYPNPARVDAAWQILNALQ

The term Ki denotes the equilibrium dissociation constant of an inhibitor or competing ligand from its target. High values mean a looser hold on the target, low ones a stronger hold on the target. As for `C[C@@H](C(=O)O)N1C(=O)C2C3CCC(C3)C2C1=O` (stereo partly specified) [CID25181259], the inhibitory constant (Ki) is 2200 µM.
The molecule `O=C(Nc1cccc(-c2nnn[nH]2)c1)c1cccc(F)c1` [CID8067740] showed an inhibitory constant (Ki) of 2800 µM.
As to `O=C1c2ccccc2C(=O)N1CCc1nnn[nH]1` [CID7129233], the affinity, expressed as Ki, was 3300 µM.
In the case of `CCc1c(C)[nH]n(-c2nnn[nH]2)c1=O` [CID7357365], affinity was put at a Ki of 3100 µM.
To `O=c1c2c3c(sc2ncn1Cc1nn[nH]n1)CCCC3` [CID 7263523] belongs 1500 µM; to `O=C(O)CN1C(=O)O[C@@H](c2ccccc2)C1=O` [CID25181261], 3500 µM.

Source of the values: BindingDB's records for doi:10.1038/nchembio.155 (University of California San Francisco, 2009).
